Source: article PMC9090415, “Discovery of small molecule inhibitors of Plasmodium falciparum apicoplast DNA polymerase” (Journal of Enzyme Inhibition and Medicinal Chemistry, 2022)

Target: P. falciparum apicoplast DNA polymerase (Pf-apPOL) (Plasmodium falciparum, UniProt Q8ILY1)
Experiment: Fluorescence-based high-throughput DNA polymerase assay (molecular beacon), primary screen and dose-response
Assay type: biochemical
Conditions: for DNA Pol: 90 min, 10 µM
Procedure: The HT assay employs a molecular beacon, a stem-loop DNA template with a Cy3 dye and the Black Hole Quencher on the 3′ and 5′ ends of the DNA, respectively. Pf-apPOL concentration is based on a calculated absorptivity of ε280 = 56750 M^−1 cm^−1. Reactions were carried out at 25 °C, using Corning 3575 […] (well-volume, 20 µL). Assays testing for compound inhibition composed of reaction buffer (pH 7.9 in 50 mM potassium acetate, 20 mM Tris-acetate and 10 mM magnesium acetate), Pf-apPOL (20 nM), DNA substrate (20 nM), dNTPs (6 µM), and compound (10 µM in DMSO). The DNA and nucleotide substrates (dNTPs) were at concentrations of 20 nM and 6 µM, respectively, in the assay. Pf-apPOL was incubated in the reaction buffer with dNTPs and the compound of interest (10 µM, in the assay) at 25 °C for 10 min. The DNA substrate was then added and the reaction was allowed to proceed for 90 min at 25 °C.
Each assay plate contained 16 negative controls (no Pf-apPOL, DMSO present) and 16 positive controls (Pf-apPOL present, no DMSO). The fluorescence of each well was determined using a BioTek Synergy Neo fluorescence plate reader using excitation and emission wavelengths of 555 and 570 nm, respectively.
In the above, Min is the average of fluorescence emission of the negative controls (substrate only), Max the average fluorescence emission from the positive controls (enzyme + substrate), and Test the emission from the assays in the presence of compounds (enzyme + compound + substrates). […] […] The IC50 of each compound was determined using Equation (2): (2) IC50= Vmax/(1+ (I/IC50)^n)
In the above, n measures cooperativity, with n > 1 indicating synergistic binding of more than a single molecule of the compound.
To identify apPOL inhibitors we utilised our previously developed high-throughput DNA polymerase assay. The HT assay is based on a molecular beacon DNA template that forms a stem-loop with a Cy3 dye and the Black Hole Quencher on the 3′ and 5′ ends of the DNA, respectively. DNA polymerase activity extends an annealed primer through the stem region, displacing the fluorophore from the quencher, thereby increasing its fluorescence (Figure 1(A)). The assay accurately recapitulates the kinetic behaviour of apPOL, as measured through more conventional low-throughput gel-based assays. The Z′ factor for the assay described here was 0.9 across all plates (data not shown).
Figure 1. High-throughput screening. (A) The fluorescent-based DNA polymerase assay used to screen the compound libraries. The DNA template strand is a hairpin loop with a primer annealed to the loop. The 3’ end of the primer is 11 bases away from the 6 bp duplex. Strand displacement activity of the DNA polymerase separates the Cy3 dye from the Black hole quencher leading to an increase in fluorescent signal. (B) The high-throughput assay workflow. The DNA polymerase is incubated with […] compound for 10 min prior to addition of the hairpin substrate. The reaction is quenched at 3 different time points and the fluorescent signal is measured and % inhibition is determined using the provided equation.

[1] = primary screen value by plate and well
[2] = primary screen value of the 186 hits, unit not given

Chain of P. falciparum apicoplast DNA polymerase (Pf-apPOL) (Q8ILY1 entry or part of it): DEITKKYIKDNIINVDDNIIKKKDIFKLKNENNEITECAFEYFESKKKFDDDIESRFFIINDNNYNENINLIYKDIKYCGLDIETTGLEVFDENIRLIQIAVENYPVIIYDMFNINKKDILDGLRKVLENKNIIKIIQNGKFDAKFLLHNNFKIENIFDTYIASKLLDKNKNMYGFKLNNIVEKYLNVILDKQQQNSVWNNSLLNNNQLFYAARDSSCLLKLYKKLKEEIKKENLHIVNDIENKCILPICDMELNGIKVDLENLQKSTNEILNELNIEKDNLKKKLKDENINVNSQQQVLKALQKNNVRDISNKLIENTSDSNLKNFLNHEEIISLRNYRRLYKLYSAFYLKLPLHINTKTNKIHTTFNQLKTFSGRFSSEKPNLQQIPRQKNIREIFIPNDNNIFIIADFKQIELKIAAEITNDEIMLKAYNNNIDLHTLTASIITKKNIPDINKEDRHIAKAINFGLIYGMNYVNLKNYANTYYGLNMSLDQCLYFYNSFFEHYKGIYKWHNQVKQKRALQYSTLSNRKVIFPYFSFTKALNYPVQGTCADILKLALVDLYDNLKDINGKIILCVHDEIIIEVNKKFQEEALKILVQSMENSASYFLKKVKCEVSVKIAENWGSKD

O=C(O)c1cccc(N2N=C(C(F)(F)F)/C(=C/c3ccc(-c4ccccc4[N+](=O)[O-])o3)C2=O)c1 [Molecule 100, O=C1N(N=C(/C/1=C/c1ccc(o1)c1ccccc1N(=O)=O)C(F)(F)F)c1cccc(c1)C(=O)O]
% inhibition Apo pol 10' (DRC-1, concentration 2.5): 26.1484% | % inhibition Apo pol 10' (DRC-1, concentration 5): 12.0969% | % inhibition Apo pol 10' (DRC-1, concentration 10): 67.0777% | % inhibition Apo pol 10' (DRC-1, concentration 20): 85.2952% | % inhibition Apo pol 10' (DRC-1, concentration 40): 91.4411% | % inhibition Apo pol 10' (DRC-1, concentration 80): 91.0692% | % inhibition Apol 90' (DRC-1, concentration 2.5): 19.5679% | % inhibition Apol 90' (DRC-1, concentration 5): 4.613% | % inhibition Apol 90' (DRC-1, concentration 10): 58.3032% | % inhibition Apol 90' (DRC-1, concentration 20): 83.4364% | % inhibition Apol 90' (DRC-1, concentration 40): 89.1977% | % inhibition Apol 90' (DRC-1, concentration 80): 89.0036% | % inhibition apPOL 180' (DRC-1, concentration 2.5): 13.4923% | % inhibition apPOL 180' (DRC-1, concentration 5): 1.454% | % inhibition apPOL 180' (DRC-1, concentration 10): 45.1585% | % inhibition apPOL 180' (DRC-1, concentration 20): 77.5112% | % inhibition apPOL 180' (DRC-1, concentration 40): 84.5547% | % inhibition apPOL 180' (DRC-1, concentration 80): 85.8771% | % inhibition Apo pol 5' (DRC-2, concentration 2.5): 20% | % inhibition Apo pol 5' (DRC-2, concentration 5): 27% | % inhibition Apo pol 5' (DRC-2, concentration 10): 47% | % inhibition Apo pol 5' (DRC-2, concentration 20): 55% | % inhibition Apo pol 5' (DRC-2, concentration 40): 63% | % inhibition Apo pol 5' (DRC-2, concentration 80): 64% | % inhibition Apol 40' (DRC-2, concentration 2.5): 23% | % inhibition Apol 40' (DRC-2, concentration 5): 30% | % inhibition Apol 40' (DRC-2, concentration 10): 51% | % inhibition Apol 40' (DRC-2, concentration 20): 65% | % inhibition Apol 40' (DRC-2, concentration 40): 76% | % inhibition Apol 40' (DRC-2, concentration 80): 78% | % inhibition ApPOL 90' (DRC-2, concentration 2.5): 21% | % inhibition ApPOL 90' (DRC-2, concentration 5): 29% | % inhibition ApPOL 90' (DRC-2, concentration 10): 51% | % inhibition ApPOL 90' (DRC-2, concentration 20): 65% | % inhibition ApPOL 90' (DRC-2, concentration 40): 77% | % inhibition ApPOL 90' (DRC-2, concentration 80): 81% | % inhibition apPOL 180' (DRC-2, concentration 2.5): 14% | % inhibition apPOL 180' (DRC-2, concentration 5): 20% | % inhibition apPOL 180' (DRC-2, concentration 10): 43% | % inhibition apPOL 180' (DRC-2, concentration 20): 60% | % inhibition apPOL 180' (DRC-2, concentration 40): 77% | % inhibition apPOL 180' (DRC-2, concentration 80): 84% | % inhibition Apo pol 5' (conc. 2.5, DRC-2): 20% | % inhibition apPOL 180' (conc. 5, DRC-2): 20% | % inhibition Apol 40' (conc. 10, DRC-2): 51% | % inhibition ApPOL 90' (conc. 10, DRC-2): 51% | % inhibition Apol 40' (conc. 20, DRC-2): 65% | % inhibition ApPOL 90' (conc. 20, DRC-2): 65% | % inhibition ApPOL 90' (conc. 40, DRC-2): 77% | % inhibition apPOL 180' (conc. 40, DRC-2): 77% | DNA Pol [1]: 55 | DNA Pol [2]: 55

CCOc1cccc2cc(C(=O)Nc3nnc(-c4ccno4)o3)oc12 [Molecule 28]
IC50 (supplemental file 2, sheet IC50 nontoxic compounds, Pf-apPOL): 7.04 µM

O=C(NCC1CCN(C2CCCC2)CC1)C(=O)NC1CCCC1 [KU0199596]
% inhibition Apo pol 10' (DRC-1, concentration 2.5): 0.01298% | % inhibition Apo pol 10' (DRC-1, concentration 5): -3.723% | % inhibition Apo pol 10' (DRC-1, concentration 10): 11.8369% | % inhibition Apo pol 10' (DRC-1, concentration 20): 30.2117% | % inhibition Apo pol 10' (DRC-1, concentration 40): 52.3157% | % inhibition Apo pol 10' (DRC-1, concentration 80): 62.5585% | % inhibition Apol 90' (DRC-1, concentration 2.5): 3.739% | % inhibition Apol 90' (DRC-1, concentration 5): 4.197% | % inhibition Apol 90' (DRC-1, concentration 10): 23.1731% | % inhibition Apol 90' (DRC-1, concentration 20): 45.2225% | % inhibition Apol 90' (DRC-1, concentration 40): 64.9359% | % inhibition Apol 90' (DRC-1, concentration 80): 71.081% | % inhibition apPOL 180' (DRC-1, concentration 2.5): 10.6167% | % inhibition apPOL 180' (DRC-1, concentration 5): 16.0151% | % inhibition apPOL 180' (DRC-1, concentration 10): 39.3373% | % inhibition apPOL 180' (DRC-1, concentration 20): 63.8149% | % inhibition apPOL 180' (DRC-1, concentration 40): 81.7381% | % inhibition apPOL 180' (DRC-1, concentration 80): 87.3658% | % inhibition Apo pol 5' (DRC-2, concentration 2.5): 6% | % inhibition Apo pol 5' (DRC-2, concentration 5): 9% | % inhibition Apo pol 5' (DRC-2, concentration 10): 24% | % inhibition Apo pol 5' (DRC-2, concentration 20): 35% | % inhibition Apo pol 5' (DRC-2, concentration 40): 45% | % inhibition Apo pol 5' (DRC-2, concentration 80): 45% | % inhibition Apol 40' (DRC-2, concentration 2.5): 2.8% | % inhibition Apol 40' (DRC-2, concentration 5): -3% | % inhibition Apol 40' (DRC-2, concentration 10): 21% | % inhibition Apol 40' (DRC-2, concentration 20): 34% | % inhibition Apol 40' (DRC-2, concentration 40): 44% | % inhibition Apol 40' (DRC-2, concentration 80): 41% | % inhibition ApPOL 90' (DRC-2, concentration 2.5): 2.29% | % inhibition ApPOL 90' (DRC-2, concentration 5): -11% | % inhibition ApPOL 90' (DRC-2, concentration 10): 19% | % inhibition ApPOL 90' (DRC-2, concentration 20): 30% | % inhibition ApPOL 90' (DRC-2, concentration 40): 40% | % inhibition ApPOL 90' (DRC-2, concentration 80): 39% | % inhibition apPOL 180' (DRC-2, concentration 2.5): -0.788% | % inhibition apPOL 180' (DRC-2, concentration 5): -84% | % inhibition apPOL 180' (DRC-2, concentration 10): 8% | % inhibition apPOL 180' (DRC-2, concentration 20): 16% | % inhibition apPOL 180' (DRC-2, concentration 40): 30% | % inhibition apPOL 180' (DRC-2, concentration 80): 34% | % inhibition Apol 40' (conc. 20, DRC-2): 34% | % inhibition ApPOL 90' (conc. 20, DRC-2): 30% | % inhibition Apo pol 5' (conc. 40, DRC-2): 45% | % inhibition apPOL 180' (conc. 40, DRC-2): 30% | % inhibition Apo pol 5' (conc. 80, DRC-2): 45% | % inhibition apPOL 180' (conc. 80, DRC-2): 34% | DNA Pol [1]: 24 | DNA Pol [2]: 24
